# Like-named read-outs stand apart in the source and are kept apart here.
# What was measured:
# [1] = molecular target: T1, Phosphodiesterase Fraction III (Canis lupus familiaris, UniProt A0A8I3NYE0); test: Inhibition of phosphodiesterase fraction III activity; format: biochemical, canine
# T1 construct: The fraction III enzyme was isolated as an isomzyme from the crude canine heart homogenate; from tissue; host or cells: canine heart (crude homogenate, ion exchange chromatography)
# T1 sequence (A0A8I3NYE0 1-1135): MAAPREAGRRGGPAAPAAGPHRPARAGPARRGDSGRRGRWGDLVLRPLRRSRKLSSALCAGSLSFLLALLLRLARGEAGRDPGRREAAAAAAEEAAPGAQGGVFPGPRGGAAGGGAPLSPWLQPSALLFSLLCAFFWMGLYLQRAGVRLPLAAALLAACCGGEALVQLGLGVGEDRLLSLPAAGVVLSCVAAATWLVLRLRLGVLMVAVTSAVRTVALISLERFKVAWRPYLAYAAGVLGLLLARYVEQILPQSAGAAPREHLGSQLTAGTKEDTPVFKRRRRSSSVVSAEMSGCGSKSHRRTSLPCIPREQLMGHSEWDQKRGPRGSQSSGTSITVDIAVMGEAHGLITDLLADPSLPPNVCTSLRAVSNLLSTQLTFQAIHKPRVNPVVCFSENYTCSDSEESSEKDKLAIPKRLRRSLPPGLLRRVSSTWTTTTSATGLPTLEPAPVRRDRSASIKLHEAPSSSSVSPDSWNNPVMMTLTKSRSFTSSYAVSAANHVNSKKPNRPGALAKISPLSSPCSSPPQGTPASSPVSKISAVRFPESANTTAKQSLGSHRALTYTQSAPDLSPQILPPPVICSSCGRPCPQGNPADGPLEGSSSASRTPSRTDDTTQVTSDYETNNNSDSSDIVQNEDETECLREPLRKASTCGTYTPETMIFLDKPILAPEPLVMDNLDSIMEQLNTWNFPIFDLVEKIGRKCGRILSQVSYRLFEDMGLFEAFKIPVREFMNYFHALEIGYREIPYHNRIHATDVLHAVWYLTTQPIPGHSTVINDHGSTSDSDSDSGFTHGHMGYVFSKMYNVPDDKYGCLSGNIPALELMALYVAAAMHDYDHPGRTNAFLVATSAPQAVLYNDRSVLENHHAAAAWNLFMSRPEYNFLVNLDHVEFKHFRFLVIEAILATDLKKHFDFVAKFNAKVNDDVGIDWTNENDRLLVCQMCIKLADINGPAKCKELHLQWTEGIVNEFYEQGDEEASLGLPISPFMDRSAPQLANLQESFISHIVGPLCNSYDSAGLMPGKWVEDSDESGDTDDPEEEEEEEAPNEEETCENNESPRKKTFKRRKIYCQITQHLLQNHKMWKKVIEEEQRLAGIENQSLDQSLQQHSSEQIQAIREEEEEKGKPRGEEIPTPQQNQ
# Procedure: Thompson et al. described a cyclic nucleotide phosphodiesterase assay in Advances in Cyclic Nucleotide Research, Brooker et al., eds., 10, 69-92 (1979). The following procedure is based on that published assay and measures the ability of compounds to inhibit cyclic nucleotide phosphodiesterase which is an enzyme that converts either cyclic AMP or cyclic GMP to the noncyclized AMP or GMP, respectively.
# Compounds were tested at various concentrations in the presence of cyclic AMP (0.10-1.0 μM containing 0.2 microCuries ^3 H-cyclic AMP), cyclic nucleotide phosphodiesterase, and 0.05M Tris-Cl buffer (pH 7.4, containing 5 mM magnesium chloride). After a specified time, the reaction was stopped by heating to 100° C. for 1 minute. After cooling, 0.10 ml of a solution containing snake venom (1 mg/ml) was added, and the reaction was allowed to proceed for 30 min. Termination of this reaction was accomplished by the addition of 1.0 ml of 33 percent DOWEX AGl×8 resin slurry (Dow Chemical Co., Midland, MI) to separate the product from the unconverted substrate. An aliquot was removed from the supernatant and analyzed by liquid scintillation spectrometry.
# The fraction III enzyme was isolated as an isomzyme from the crude canine heart homogenate by ion exchange chromatography. The enzyme activity was designated fraction III since it is the third and last phosphodiesterase activity to be eluted from the chromatographic column. The fraction III enzyme has a relatively high affinity and specificity for the cyclic AMP.
# Data are presented as the IC50 which is the concentration (in micromoles) of a compound that was required to inhibit 50 percent of the cyclic nucleotide phosphodiesterase activity.
# adult mongrel dogs [2] = test: Renal vasodilating activity in anesthetized dogs; format: in vivo, mongrel dog; settings: Canis lupus familiaris
# Procedure: Goldberg et al., J. Pharmacol. Exp. Ther., 163, 188 (1968), performed an investigation of the structural requirements for dopamine-like renal vasodilation of phenethylamines and apomorphine. The following procedure is a variation of the assay described in that report.
# Adult mongrel dogs were anesthetized and surgically prepared for electromagnetic measurement of renal artery blood flow. A carotid artery was cannulated for measuring arterial blood pressure and drugs were administered intravenously or intraarterially (via the renal artery). Heart rate was monitored with a cardiotachometer. Renal vascular resistance was calculated as the ratio of mean arterial blood pressure to renal artery blood flow. Dopamine was infused intravenously at 3 μg/kg/min for ten minutes (at an infusion rate of about 1 ml/min) to determine responsiveness of each dog to renal dopamine receptor stimulation. Cumulative dose-response data were obtained by infusing a compound of this invention at progressively increasing (usually three-fold) infusion rates, each dose being infused for five minutes. The maximum percent change from pre-drug control in renal artery blood flow (or in renal vascular resistance) was determined for each infusion dose.
# RBF, RVR, MABP, and HR values are percent changes in renal blood flow, renal vascular resistance, mean arterial blood pressure, and heart rate, respectively, relative to control values.
# adult mongrel dogs [3] = test: Acute in vivo cardiotonic activity in anesthetized dogs; design: species or system mongrel dog; settings: Canis lupus familiaris, dose 1.87 mpk, iv, relative to controls
# Procedure: The acute in vivo cardiotonic activity of compounds prepared according to the present invention was determined according to a modification of the procedure described by Alousi et al., Circ.
# In particular, adult mongrel dogs were anesthetized with sodium pentobarbital and were artificially respired. Arterial pressure was monitored via a femoral artery, and the pulse pressure was used to trigger a cardiotachometer for heart rate. Left ventricular pressure was determined with a Millar catheter, and dP/dT (the change in ventricular pressure with time) was derived. Cardiac output was determined by measuring ascending aortic blood flow with an electromagnetic flow probe, and myocardial contractile force was measured with a Walton Brodie strain gauge sutured to the right ventricle. Lead II EKG was also recorded.
# A standard dose (10 μg/kg/min) of dopamine was administered to assess myocardial responsiveness.
# Compounds of the invention were administered by intravenous infusion and the effects on cardiovascular parameters were determined.
# platelet aggregation = settings: reported in U.S. Pat. No. 3,870,721; cited from earlier work
# [4] = cyclic AMP 0.10-1.0 μM, pH 7.4, enzyme from canine heart homogenate, read-out: IC50
# [5] = dose 6.2 mpk, relative to controls, read-out: HR: percent change in heart rate
# [6] = dose 6.2 mpk, relative to controls, read-out: MABP: percent change in mean arterial blood pressure
# [7] = dose 6.2 mpk, relative to controls, read-out: RBF: percent change in renal blood flow
# [8] = dose 6.2 mpk, relative to controls, read-out: RVR: percent change in renal vascular resistance
# [9] = read-out: CF: percent change in cardiac force
# [10] = read-out: HR: percent change in heart rate
# [11] = read-out: MABP: percent change in mean arterial blood pressure
# [12] = read-out: dP/dT: maximum percent change in left ventricular pressure with time
# [13] = read-out: HR: percent change in heart rate, dose 6.2 mpk, relative to controls
# [14] = read-out: MABP: percent change in mean arterial blood pressure, dose 6.2 mpk, relative to controls
# [15] = read-out: RBF: percent change in renal blood flow, dose 6.2 mpk, relative to controls
# [16] = read-out: RVR: percent change in renal vascular resistance, dose 6.2 mpk, relative to controls
# [17] = read-out: HR: percent change in heart rate, dose 1.2 mpk, relative to controls
# [18] = read-out: MABP: percent change in mean arterial blood pressure, dose 1.2 mpk, relative to controls
# [19] = read-out: RBF: percent change in renal blood flow, dose 1.2 mpk, relative to controls
# [20] = read-out: RVR: percent change in renal vascular resistance, dose 1.2 mpk, relative to controls
smiles,measurement,setting,value
COC(=O)c1c(OC(C)C)nc(C)c2cc(OC)c(OC)cc12 [Cmpd 18],IC50,[1]; [4],225 µM
CCOc1cc2c(C)nc(OC(=O)N(CC)CC)c(N)c2cc1OC [Cmpd 44],IC50,[1]; [4],180 µM
CCOc1cc2c([N+](=O)[O-])c(OC(C)=O)nc(C)c2cc1OC [Cmpd 21],change in vivo at 6.2 mg/kg,adult mongrel dogs [2]; [5],38%
same,change in vivo at 6.2 mg/kg,adult mongrel dogs [2]; [6],3%
same,change in vivo at 6.2 mg/kg,adult mongrel dogs [2]; [7],40%
same,change in vivo at 6.2 mg/kg,adult mongrel dogs [2]; [8],-25%
same,IC50,[1]; [4],14 µM
CCOc1cc2c(C)nc(OC(=O)c3ccc(OC)cc3)c([N+](=O)[O-])c2cc1OC [Cmpd 11],change in vivo at 1.87 mg/kg,adult mongrel dogs [3]; [9],126%
same,change in vivo at 1.87 mg/kg,adult mongrel dogs [3]; [10],25%
same,change in vivo at 1.87 mg/kg,adult mongrel dogs [3]; [11],-17%
same,change in vivo at 1.87 mg/kg,adult mongrel dogs [3]; [12],47%
same,IC50,[1]; [4],30 µM
CCOc1cc2c(C)nc(OC(C)=O)c([N+](=O)[O-])c2cc1OC [Cmpd 3],change in vivo at 6.2 mg/kg,adult mongrel dogs [2]; [5],2%
same,change in vivo at 6.2 mg/kg,adult mongrel dogs [2]; [6],-6%
same,change in vivo at 6.2 mg/kg,adult mongrel dogs [2]; [7],61%
same,change in vivo at 6.2 mg/kg,adult mongrel dogs [2]; [8],-41%
same,IC50,[1]; [4],6 µM
"CCOc1nc(C)c2cc(OC)c(OC)cc2c1C(=O)OC [Cmpd 19, 4-Carbomethoxy-3-ethoxy-6,7-dimethoxy-1-methylisoquinoline]",IC50,[1]; [4],42 µM
COc1cc2c(C)nc(OC(=O)N(c3ccccc3)c3ccccc3)c([N+](=O)[O-])c2cc1OC [Cmpd 34],change in vivo at 6.2 mg/kg,adult mongrel dogs [2]; [13],21%
same,change in vivo at 6.2 mg/kg,adult mongrel dogs [2]; [14],-10%
same,change in vivo at 6.2 mg/kg,adult mongrel dogs [2]; [15],37%
same,change in vivo at 6.2 mg/kg,adult mongrel dogs [2]; [16],-35%
same,IC50,[1],35 µM
CCCCOc1cc2c(C)nc(OC(C)=O)c([N+](=O)[O-])c2cc1OC [Cmpd 22],change in vivo at 1.87 mg/kg,adult mongrel dogs [3]; [9],43%
same,change in vivo at 1.87 mg/kg,adult mongrel dogs [3]; [10],2%
same,change in vivo at 1.87 mg/kg,adult mongrel dogs [3]; [11],-23%
same,change in vivo at 1.87 mg/kg,adult mongrel dogs [3]; [12],68%
same,change in vivo at 6.2 mg/kg,adult mongrel dogs [2]; [5],25%
same,change in vivo at 6.2 mg/kg,adult mongrel dogs [2]; [6],-12%
same,change in vivo at 6.2 mg/kg,adult mongrel dogs [2]; [7],11%
same,change in vivo at 6.2 mg/kg,adult mongrel dogs [2]; [8],-22%
same,IC50,[1]; [4],3.5 µM
CCOc1cc2c(C)nc(OS(=O)(=O)N(C)C)c([N+](=O)[O-])c2cc1OC [Cmpd 26],change in vivo at 6.2 mg/kg,adult mongrel dogs [2]; [5],0%
same,change in vivo at 6.2 mg/kg,adult mongrel dogs [2]; [6],0%
same,change in vivo at 6.2 mg/kg,adult mongrel dogs [2]; [7],7%
same,change in vivo at 6.2 mg/kg,adult mongrel dogs [2]; [8],-8%
same,IC50,[1]; [4],20.5 µM
CCOc1cc2c(C)nc(OC(=O)N3CCNCC3)c([N+](=O)[O-])c2cc1OC [Cmpd 71],IC50,[1],22 µM
CCOc1cc2c(C)nc(OC(=O)N(C)C)c([N+](=O)[O-])c2cc1OC [Cmpd 10],change in vivo at 1.87 mg/kg,adult mongrel dogs [3]; [9],70%
same,change in vivo at 1.87 mg/kg,adult mongrel dogs [3]; [10],-6%
same,change in vivo at 1.87 mg/kg,adult mongrel dogs [3]; [11],18%
same,change in vivo at 1.87 mg/kg,adult mongrel dogs [3]; [12],91%
same,change in vivo at 6.2 mg/kg,adult mongrel dogs [2]; [13],10%
same,change in vivo at 6.2 mg/kg,adult mongrel dogs [2]; [14],-12%
same,change in vivo at 6.2 mg/kg,adult mongrel dogs [2]; [15],46%
same,change in vivo at 6.2 mg/kg,adult mongrel dogs [2]; [16],-39%
same,IC50,[1],45 µM
CCOc1cc2c(C)nc(OC(=O)C(C)(C)C)c([N+](=O)[O-])c2cc1OC [Cmpd 9],change in vivo at 6.2 mg/kg,adult mongrel dogs [2]; [5],0%
same,change in vivo at 6.2 mg/kg,adult mongrel dogs [2]; [6],-26%
same,change in vivo at 6.2 mg/kg,adult mongrel dogs [2]; [7],43%
same,change in vivo at 6.2 mg/kg,adult mongrel dogs [2]; [8],-48%
same,IC50,[1]; [4],100 µM
"CC(=O)NC1C(=O)NC(=O)c2ccccc21 (centres unmarked) [4-acetamido-1,2,3,4-tetrahydro 1,3-isoquinolinedione]",inhibition of platelet aggregation,platelet aggregation,inhibit platelet aggregation
COc1cc2c(C)nc(OS(=O)(=O)N(C)C)c(N)c2cc1OC [Cmpd 63],IC50,[1]; [4],185 µM
COc1cc2c(C)nc(OS(=O)(=O)N(C)C)c(N)c2cc1OC [Cmpd 43],IC50,[1]; [4],34 µM
"COc1cc2c(C)nc(OC(=O)N3CCNCC3)c([N+](=O)[O-])c2cc1OC [Cmpd 70, 6,7-Dimethoxy-1-methyl-4-nitro-3-(1-piperazinyl)carbonyloxyisoquinoline]",change in vivo at 1.2 mg/kg,adult mongrel dogs [2]; [17],20%
same,change in vivo at 1.2 mg/kg,adult mongrel dogs [2]; [18],-1%
same,change in vivo at 1.2 mg/kg,adult mongrel dogs [2]; [19],26%
same,change in vivo at 1.2 mg/kg,adult mongrel dogs [2]; [20],-19%
same,IC50,[1],78 µM
C=CCNC(=O)Nc1c(OC(=O)N(CC)CC)nc(C)c2cc(OCC)c(OC)cc12 [Cmpd 74],change in vivo at 1.2 mg/kg,adult mongrel dogs [2]; [17],-16%
same,change in vivo at 1.2 mg/kg,adult mongrel dogs [2]; [18],-2%
same,change in vivo at 1.2 mg/kg,adult mongrel dogs [2]; [19],15%
same,change in vivo at 1.2 mg/kg,adult mongrel dogs [2]; [20],-14%
same,IC50,[1],115 µM

# Reference: US4880817A, “O-functionalized derivatives of substituted isoquinolin-3-ols having cardiotonic and/or phosphodiesterase fraction III inhibiting properties and/or renal vasodilating properties” (Ortho Pharmaceutical Corporation, priority 1987, dated 1989)
